Experimental data published in patent US20260317312A1, “ISOXAZOLIDINES AS RIPK1 INHIBITORS AND USE THEREOF” (GENZYME CORPORATION, priority 2023, published 2026).
pIC50: −log10 of the molar value.

How the values were obtained:
U937 cells = assay: Cellular assay in U937 cells to measure activity of RIPK1-inhibitors on cell death (necroptosis); type: cell-based; details: Homo sapiens, U-937, TNFα/zVAD.fmk induced cell death (necroptosis), overnight (18 to 24 hrs), 37° C., MTS readout
[1] = molecular target: T1, hRIPK1 (aa 1-375) fusion protein (Homo sapiens, UniProt Q13546); assay: Receptor-Interacting Protein Kinase 1 inhibition, ADP Glo assay (conversion of ATP to ADP due to autophosphorylation); type: biochemical; details: ATP 50 μM, 30 min preincubation, 240 min incubation, room temperature, DMSO 1%
T1 construct: hRIPK1 (aa 1-375) fusion protein
T1 sequence (Q13546 1-375): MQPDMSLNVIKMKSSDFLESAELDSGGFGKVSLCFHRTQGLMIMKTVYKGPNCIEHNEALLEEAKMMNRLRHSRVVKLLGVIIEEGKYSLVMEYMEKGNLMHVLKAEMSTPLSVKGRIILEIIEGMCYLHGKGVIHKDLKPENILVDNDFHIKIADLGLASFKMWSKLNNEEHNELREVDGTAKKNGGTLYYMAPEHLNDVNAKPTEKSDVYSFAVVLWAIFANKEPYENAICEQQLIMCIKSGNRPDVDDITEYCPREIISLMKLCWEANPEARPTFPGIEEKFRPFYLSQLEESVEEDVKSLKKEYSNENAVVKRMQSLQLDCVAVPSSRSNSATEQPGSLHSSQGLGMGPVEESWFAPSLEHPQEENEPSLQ
Procedure, shortened: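 hRIPK1 (aa 1-375) fusion protein (3.6 μg/ml final) was preincubated 30 min at rt with compound (33300-1.69 nM, 1% DMSO), then 50 μM ATP was added for 240 min at rt. ADP from autophosphorylation was measured by ADP-Glo luminescence and curves fitted by nonlinear regression.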

Compound | pIC50 (U937 cells) | pIC50 [1]
N#Cc1cc(F)cc(OC[C@H]2CC[C@@H](C(=O)N3OCC[C@H]3c3cc(F)cc(F)c3)CC2)c1 [Compound 53, cis-3-((4-((S)-3-(3,5-difluorophenyl)isoxazolidine-2-carbonyl)cyclohexyl)methoxy)-5-fluorobenzonitrile] | 7.77 | 7.74
NC(=O)c1cc(OC[C@H]2CC[C@@H](C(=O)N3OCC[C@H]3c3cc(F)cc(F)c3)CC2)ncn1 [Compound 54, cis-6-((4-((S)-3-(3,5-difluorophenyl)isoxazolidine-2-carbonyl)cyclohexyl)methoxy)pyrimidine-4-carboxamide] | 6.44 | 7.10
N#Cc1cc(OC[C@H]2CC[C@@H](C(=O)N3OCC[C@H]3c3cc(F)cc(F)c3)CC2)ncn1 [Compound 55, cis-6-((4-((S)-3-(3,5-difluorophenyl)isoxazolidine-2-carbonyl)cyclohexyl)methoxy)pyrimidine-4-carbonitrile] | 5.82 | 7.25
O=C([C@H]1CC[C@@H](COc2cc(Cl)ncn2)CC1)N1OCC[C@H]1c1cc(F)cc(F)c1 [Compound 56, cis-(4-(((6-chloropyrimidin-4-yl)oxy)methyl)cyclohexyl)((S)-3-(3,5-difluorophenyl)isoxazolidin-2-yl)methanone] | 6.90 | 7.33
CC1(C)OC(=O)N(c2ccc(Cl)c(OC[C@H]3CC[C@H](C(=O)N4OCC[C@H]4c4cc(F)cc(F)c4)CC3)c2)C1=O [Compound 57, trans-3-(4-chloro-3-((4-((S)-3-(3,5-difluorophenyl)isoxazolidine-2-carbonyl)cyclohexyl)methoxy)phenyl)-5,5-dimethyloxazolidine-2,4-dione] | 7.43 | 7.42
O=C1CCC(=O)N1c1ccc(Cl)c(OC[C@H]2CC[C@H](C(=O)N3OCC[C@H]3c3cc(F)cc(F)c3)CC2)c1 [Compound 58, trans-1-(4-chloro-3-((4-((S)-3-(3,5-difluorophenyl)isoxazolidine-2-carbonyl)cyclohexyl)methoxy)phenyl)pyrrolidine-2,5-dione] | 6.98 | 7.36
CC1(C)OC(=O)N(c2ccc(F)c(OC[C@H]3CC[C@H](C(=O)N4OCC[C@H]4c4cc(F)cc(F)c4)CC3)c2)C1=O [Compound 59, trans-3-(3-((4-((S)-3-(3,5-difluorophenyl)isoxazolidine-2-carbonyl)cyclohexyl)methoxy)-4-fluorophenyl)-5,5-dimethyloxazolidine-2,4-dione] | 7.52 | 7.54
O=C1CCCN1c1ccc(Cl)c(OC[C@H]2CC[C@H](C(=O)N3OCC[C@H]3c3cc(F)cc(F)c3)CC2)c1 [Compound 60, trans-1-(4-chloro-3-((4-((S)-3-(3,5-difluorophenyl)isoxazolidine-2-carbonyl)cyclohexyl)methoxy)phenyl)pyrrolidin-2-one] | 6.95 | 7.12
N#Cc1cc(F)cc(O[C@H]2C[C@@H](C(=O)N3OCC[C@H]3c3cc(F)cc(F)c3)C2)c1 [Compound 61, cis-3-(3-((S)-3-(3,5-difluorophenyl)isoxazolidine-2-carbonyl)cyclobutoxy)-5-fluorobenzonitrile] | 6.90 | 7.27
Cc1cc(C)n(-c2ccc(OC[C@H]3CC[C@H](C(=O)N4OCC[C@H]4c4cc(F)cc(F)c4)CC3)c(F)c2)n1 [Compound 62, trans-((S)-3-(3,5-difluorophenyl)isoxazolidin-2-yl)(4-((4-(3,5-dimethyl-1H-pyrazol-1-yl)-2-fluorophenoxy)methyl)cyclohexyl)methanone] | 7.47 | 7.55
CN1CC(=O)N(c2ccc(Cl)c(OC[C@H]3CC[C@H](C(=O)N4OCC[C@H]4c4cc(F)cc(F)c4)CC3)c2)C1=O [Compound 63, trans-3-(4-chloro-3-((4-((S)-3-(3,5-difluorophenyl)isoxazolidine-2-carbonyl)cyclohexyl)methoxy)phenyl)-1-methylimidazolidine-2,4-dione] | 7.35 | 7.36
Cc1nnc(C)n1-c1ccc(F)c(OC[C@H]2CC[C@H](C(=O)N3OCC[C@H]3c3cc(F)cc(F)c3)CC2)c1 [Compound 64, trans-((S)-3-(3,5-difluorophenyl)isoxazolidin-2-yl)(4-((5-(3,5-dimethyl-4H-1,2,4-triazol-4-yl)-2-fluorophenoxy)methyl)cyclohexyl)methanone] | 6.28 | 7.25
N#Cc1cc(O[C@H]2C[C@@H](C(=O)N3OCC[C@H]3c3cc(F)cc(F)c3)C2)ccc1F [Compound 65, cis-5-(3-((S)-3-(3,5-difluorophenyl)isoxazolidine-2-carbonyl)cyclobutoxy)-2-fluorobenzonitrile] | 7.31 | 7.74
NS(=O)(=O)c1cccc(OC[C@H]2CC[C@H](C(=O)N3OCC[C@H]3c3cc(F)cc(F)c3)CC2)c1 [Compound 66, trans-3-((4-((S)-3-(3,5-difluorophenyl)isoxazolidine-2-carbonyl)cyclohexyl)methoxy)benzenesulfonamide] | 8.10 | 7.46
Cc1nnc(C)n1-c1ccc(OC[C@H]2CC[C@H](C(=O)N3OCC[C@H]3c3cc(F)cc(F)c3)CC2)c(F)c1 [Compound 67, trans-((S)-3-(3,5-difluorophenyl)isoxazolidin-2-yl)(4-((4-(3,5-dimethyl-4H-1,2,4-triazol-4-yl)-2-fluorophenoxy)methyl)cyclohexyl)methanone] | 6.89 | 7.34
Cn1ccn(-c2ccc(OC[C@H]3CC[C@H](C(=O)N4OCC[C@H]4c4cc(F)cc(F)c4)CC3)c(F)c2)c1=O [Compound 68, trans-1-(4-((4-((S)-3-(3,5-difluorophenyl)isoxazolidine-2-carbonyl)cyclohexyl)methoxy)-3-fluorophenyl)-3-methyl-1,3-dihydro-2H-imidazol-2-one] | 8.10 | 7.72
O=C([C@H]1C[C@@H](n2cnc3cc(F)ccc32)C1)N1OCC[C@H]1c1cc(F)cc(F)c1 [Compound 69, cis-((S)-3-(3,5-difluorophenyl)isoxazolidin-2-yl)(3-(5-fluoro-1H-benzo[d]imidazol-1-yl)cyclobutyl)methanone] | 7.46 | 7.59
N#Cc1cc(F)cc([C@@H]2CCON2C(=O)[C@H]2C[C@@H](n3cnc4cc(F)ccc43)C2)c1 [Compound 70, cis-3-fluoro-5-((S)-2-(3-(5-fluoro-1H-benzo[d]imidazol-1-yl)cyclobutane-1-carbonyl)isoxazolidin-3-yl)benzonitrile] | 6.46 | 7.41
N#Cc1cccc(OC[C@H]2CC[C@H](C(=O)N3OCC[C@H]3c3cncc(C#N)c3)CC2)c1 [Compound 71, trans-5-((S)-2-(4-((3-cyanophenoxy)methyl)cyclohexane-1-carbonyl)isoxazolidin-3-yl)nicotinonitrile] | 8.22 | 7.85
N#Cc1cncc([C@@H]2CCON2C(=O)[C@H]2CC[C@H](COc3ccc(F)c(C#N)c3)CC2)c1 [Compound 72, trans-5-((S)-2-(4-((3-cyano-4-fluorophenoxy)methyl)cyclohexane-1-carbonyl)isoxazolidin-3-yl)nicotinonitrile] | 7.89 | 7.82
N#Cc1cncc([C@@H]2CCON2C(=O)[C@H]2CC[C@H](COc3cccc(C(N)=O)c3)CC2)c1 [Compound 73, trans-3-((4-((S)-3-(5-cyanopyridin-3-yl)isoxazolidine-2-carbonyl)cyclohexyl)methoxy)benzamide] | 7.59 | 7.54
N#Cc1cncc([C@@H]2CCON2C(=O)[C@H]2CC[C@H](COc3ccc(F)c(C(N)=O)c3)CC2)c1 [Compound 74, trans-5-((4-((S)-3-(5-cyanopyridin-3-yl)isoxazolidine-2-carbonyl)cyclohexyl)methoxy)-2-fluorobenzamide] | 7.09 | 7.62
N#Cc1cncc([C@@H]2CCON2C(=O)[C@H]2CC[C@H](COc3ccc(Cl)c(C(N)=O)c3)CC2)c1 [Compound 75, trans-2-chloro-5-((4-((S)-3-(5-cyanopyridin-3-yl)isoxazolidine-2-carbonyl)cyclohexyl)methoxy)benzamide] | 6.65 | 7.37
Cc1cc(C)n(-c2ccc(OC[C@H]3CC[C@H](C(=O)N4OCC[C@H]4c4cc(F)cc(C#N)c4)CC3)c(F)c2)n1 [Compound 76, trans-3-((S)-2-(4-((4-(3,5-dimethyl-1H-pyrazol-1-yl)-2-fluorophenoxy)methyl)cyclohexane-1-carbonyl)isoxazolidin-3-yl)-5-fluorobenzonitrile] | 7.33 | 7.33
N#Cc1cc(F)cc([C@@H]2CCON2C(=O)[C@H]2CC[C@H](COc3cccc(S(N)(=O)=O)c3)CC2)c1 [Compound 77, trans-3-((4-((S)-3-(3-cyano-5-fluorophenyl)isoxazolidine-2-carbonyl)cyclohexyl)methoxy)benzenesulfonamide] | 7.32 | 7.28
Cn1ccn(-c2ccc(OC[C@H]3CC[C@H](C(=O)N4OCC[C@H]4c4cc(F)cc(C#N)c4)CC3)c(F)c2)c1=O [Compound 78, trans-3-fluoro-5-((S)-2-(4-((2-fluoro-4-(3-methyl-2-oxo-2,3-dihydro-1H-imidazol-1-yl)phenoxy)methyl)cyclohexane-1-carbonyl)isoxazolidin-3-yl)benzonitrile] | 8.05 | 7.37
